Data: PMC8895403, “A Strategy to Select Macrocyclic Peptides Featuring Asymmetric Molecular Scaffolds as Cyclization Units by Phage Display” (Journal of the American Chemical Society, 2022)
Where two headings read alike, the source gives them in different places. Numbered stars: 1 amine (or outer) side, 2 acyl side, 3 side chain; on linkers, the order of the positions; unused ones are H or OH. Bridge positions count the residues as written; N and C are the ends. Square brackets hold non-standard residues; d marks the D form. Ends that are not written are not given here. Peptide text beside a SMILES is read from it. * marks the point of attachment. X1 = COc1ccc(CN([C@@H](C)C(=O)[*:2])[*:1])cc1N[*:3]; X3 = COc1ccc(CO)cc1NC(=O)C*; X2 = O=C(C[*:2])[*:1]

Assays:
[1] = target: T1, streptavidin (Streptomyces avidinii, UniProt P22629); test: HABA competition binding assay (competitive ligand-binding analysis); conditions: for Kd: >10 μM given where no saturation, read-out: Kd,app
T1 sequence (P22629 25-183): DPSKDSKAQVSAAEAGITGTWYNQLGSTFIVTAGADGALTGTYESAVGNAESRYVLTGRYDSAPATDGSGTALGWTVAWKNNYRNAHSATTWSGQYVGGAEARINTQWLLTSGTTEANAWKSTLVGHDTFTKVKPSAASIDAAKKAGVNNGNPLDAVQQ
From the text: To pinpoint the binding mode of SAV_1–3 variants, we first synthesized the linear precursors and then prepared their modified and cyclized versions (Figure S13). […] To further elucidate the role of the free aldehyde for binding, we additionally prepared SAV_1–3 peptides that were modified with cyclization units bearing an alcohol moiety instead (Figures 6b and S13). […]
In vitro affinity measurements: To determine the affinity of the selected peptides for Streptavidin, a competitive binding experiment was performed similarly to previously described literature procedures.[7] In brief, for the competitive binding experiment, increasing amounts of peptide (final concentration 0.01 – 500 μM in 12.5% ACN + 0.1% TFA in PBS phosphate buffered saline (PBS, 137 mM NaCl, 2.7 mM KCl, 10 mM Na2HPO4, 2 mM […]
Streptavidin monomer (final concentration 1.5 mM/ 40 µM (SAV_1), 33 µM (SAV_2), 32 µM (SAV_3)). The reactions were allowed to reach equilibrium at room temperature (60 min.) and […]
IC50 values were obtained by fitting the average of three measurements to equation 1:
A = A + A500nm,max − A500nm,min (1) […]
where, A500nm is the measured absorbance at unbound peptide concentration, [L], and H is the Hill coefficient (H = 1 assumed for streptavidin-binding peptides). A500nm,min corresponds to the value measured in presence of 1 mM biotin and A500nm,max corresponds to absorbance values measured in absence of the peptide.
The Kd values for SAV_1_mod, SAV_1_cycl, and SAV_2_mod, SAV_1S_mod, and SAV_1S_cycl were obtained from their respective IC50 values using equation 2: […]

[2] = target: T1, streptavidin; test: Biopanning of phages displaying SAV_1-3 against streptavidin (recovery rates from phage titers); assay type: binding; conditions: for recovery rate / retention after biopanning against streptavidin (in words): phages subjected to cyclization conditions, compared with linear and modified
From the text: To independently verify that our strategy selects peptide binders, we first produced phages displaying SAV_1–3. Next, we performed the modification and cyclization reactions as described previously and determined phage titers before and after biopanning against streptavidin for phages featuring the linear precursor, the modified and cyclized peptides (Figure S12, see the Supporting Information for details). Consistent with the selection of peptide binders upon addition of our bifunctional cyclization units, the recovery rates for linear precursors were the lowest for all three peptides (Figure 6A). […] Featuring a reactive aldehyde moiety, this apparently higher affinity of the modified analogue of SAV_2 could be the result of the transient formation of an iminium ion via condensation with either the N-terminal amine or a lysine side chain of streptavidin.
Production of SAV_1-3 displaying bacteriophages: To validate the selection of cyclic peptide binders over their linear, and modified counterparts, phages displaying the peptide sequences of the […] most enriched hits SAV_1, SAV_2 and SAV_3 were panned against streptavidin either in linear, modified or cyclic peptide form. Phage titers pre- and post-streptavidin panning were determined and compared between all the samples.
In brief, 700 μL of densely grown E. coli TG1 overnight cultures harboring the […]
-fd plasmid (SAV_1), […]-fd plasmid (SAV_2) and
-fd plasmid (SAV_3) respectively, were used to inoculate 500 mL 2xYT-medium containing 30 μg/mL chloramphenicol. After incubation overnight (30 °C at 190 rpm) phage particles were purified and all cysteines were reduced with TCEP as described in Section
9. At this point the phage samples were split into 3 fractions of 2.5 mL. One sample was stored at 4 °C as ‘linear phage’ sample, the other two samples were modified with scaffold 3 (SAV_1 and SAV_2) or scaffold 4 (SAV_3) and purified as described in Section 9. […] Phage titers of these samples were determined ( Figure S12A) and all samples were diluted to approximately […] colony forming units using reduction buffer. […]

Q: How did the Kd ([1]; aldehyde-modified peptide (Figure 6b, column 3)) turn out when AWWTNDFCA-NH2 [SAV_1S] was run?
A: The Kd was 5.16 ± 0.59 µM.

Q: What about the Kd ([1]; cyclic peptide (Figure 6b, column 4)) of the same compound?
A: The Kd was 0.164 ± 0.078 µM.

Q: What about the Kd ([1]; linear precursor peptide (Figure 6b, column 1)) of the same compound?
A: Its Kd is greater than 10 µM.

Q: With `COc1ccc(CO)cc1NC(=O)CSC[C@H](NC(=O)[C@H](C)NC(=O)[C@@H]1CSCC(=O)Nc2cc(ccc2OC)CN[C@@H](C)C(=O)N[C@@H](Cc2c[nH]c3ccccc23)C(=O)N[C@@H](Cc2c[nH]c3ccccc23)C(=O)N[C@@H]([C@@H](C)O)C(=O)N[C@@H](CC(N)=O)C(=O)N[C@@H](CC(=O)O)C(=O)N[C@@H](Cc2ccccc2)C(=O)N1)C(=O)N[C@@H](C)C(N)=O` [cyclic SAV_1] (H-[X1]WWTNDFCAC(X3)A-NH2; linker 1-8 via X2) as the compound, how does the “factor/fold advantage in Kd,app of cyclic peptide over aldehyde-modified peptide” value ([1]; cyclic vs aldehyde-modified form of the same sequence) read?
A: The value was roughly 20.

Q: How did the “recovery rate / retention after biopanning against streptavidin (in words)” value [2] turn out when `C[C@H](N)C(=O)N[C@@H](Cc1c[nH]c2ccccc12)C(=O)N[C@@H](Cc1c[nH]c2ccccc12)C(=O)N[C@H](C(=O)N[C@@H](CC(N)=O)C(=O)N[C@@H](CC(=O)O)C(=O)N[C@@H](Cc1ccccc1)C(=O)N[C@@H](CS)C(=O)N[C@@H](C)C(=O)N[C@@H](CS)C(=O)N[C@@H](C)C(N)=O)[C@@H](C)O` [SAV_1] was run?
A: Its value is “highest levels of retention”.

Q: `C[C@H](N)C(=O)N[C@@H](Cc1c[nH]c2ccccc12)C(=O)N[C@@H](Cc1c[nH]c2ccccc12)C(=O)N[C@@H](CCC(=O)O)C(=O)N[C@@H](CC(=O)O)C(=O)N[C@@H](CCCNC(=N)N)C(=O)NCC(=O)N1CCC[C@H]1C(=O)N1CCC[C@H]1C(=O)N[C@@H](CS)C(=O)N[C@@H](C)C(N)=O` [SAV_2] was tested. Which “affinity for streptavidin in the competition assay (in words)” value ([1]; form of the peptide as worded at the place) did it give?
A: Its value is “the cyclic peptide did not display any affinity”.

Q: And the “recovery rate after biopanning against streptavidin (in words)” value ([2]; phages with modified (aldehyde) peptide, compared with linear and cyclized)?
A: Its value is “highest recovery rates”.

Q: With `CSCC[C@H](NC(=O)CNC(=O)[C@@H](NC(=O)[C@H](CC(C)C)NC(=O)CNC(=O)[C@@H](NC(=O)[C@H](CC(N)=O)NC(=O)[C@H](CCCNC(=N)N)NC(=O)[C@H](C)N)C(C)C)C(C)C)C(=O)N[C@@H](CS)C(=O)N[C@@H](C)C(N)=O` [SAV_3] as the compound, how does the “recovery rate / retention after biopanning against streptavidin (in words)” value [2] read?
A: The value was “highest levels of retention”.
